Measurements as given in US11541065B2, “Compositions and methods for treating brain injury” (UNM RAINFOREST INNOVATIONS, priority 2018, dated 2023).

Assays:
Format in all cases: cell-based
PGE2 = PGE2 release from rat neuronal cultures (enzyme immunoassay / ELISA of culture media); settings: for effect on homocysteine-induced PGE2 release: rat neurons, L-homocysteine 50 μM four hours, with DL-AP5 200 μM, MK801 10 μM, NVP-AAM077 30 nM, Ro 25-6981 1 μM, PD98059 15 μM, SB203580 5 μM, Bengamide B 500 nM or CAY10404 100 nM
Experimental: (§1) Neuron cultures were treated with or without L-homocysteine in the presence or absence of pharmacological inhibitors for the time period specified in each experiment. The medium was collected from each experimental plate and centrifuged at 1000 rpm for five minutes to remove cellular debris. Equal amounts (100 μl) of the supernatant from each sample were used to determine the amount of PGE2 using the PGE2 enzyme immunoassay kit according to the manufacturer's instructions. For measurement of cPLA2 activity, the neuronal cells from the above treated conditions were harvested in ice-cold Tris-buffered saline (pH7.4) containing sodium pyrophosphate as phosphatase inhibitor, sonicated three times with five-second bursts and two minutes on ice between intervals. The lysed cell suspensions were centrifuged at 10,000 rpm for 10 minutes and the supernatant removed. Equal amounts of protein from the supernatant (assessed using BCA protein estimation kit) were estimated for activity of cPLA2 using cPLA2 activity assay kit according to the manufacturer's protocol.
For measurement of PGE2 levels and MCP-1 levels released from neurons, culture medium was collected from each experimental plate and centrifuged at 1000 rpm for five minutes to remove cellular debris. Equal volume (100 μl) of the supernatant from each sample was used to determine PGE2 level using the PGE2 ELISA kit according to the manufacturer's instructions.

ERK MAPK = ERK MAPK phosphorylation in rat cortical neuron cultures (immunoblot)
Description: Primary cortical neuronal cultures were established from embryos obtained from pregnant Sprague Dawley female rats (16-17 day gestation) as previously described (Podder and Paul, 2009, J Neurochem 110:1095-1106; Poddar and Paul, 2013, J Neurochem 124: 558-570). Primary cortical neuronal cultures were also developed from pregnant wildtype or GluN2A-knockout mice (15-16 day gestation) using similar protocols. The cells were maintained in culture for 12-14 days prior to treatment with homocysteine. L-homocysteine (200 mM stock) was prepared by alkali hydrolysis of L-homocysteine thiolactone hydrochloride followed by neutralization with 2N HCL and maintained in 0.02 mM N-Tris(hydroxymethyl)methyl-2-aminoethanesulfonicd acid (TES) buffer pH 7.4 (Poddar et al., 2001, Circulation 103:2717-2723). For receptor stimulation neurons were treated with freshly prepared 50 μM of L-homocysteine in Hank's balanced salt solution (Podder and Paul, 2009, J Neurochem 110:1095-1106; Poddar and Paul, 2013, J Neurochem 124: 558-570) containing 50 μM of glycine (Lipton et al., 1997, Proc Natl Acad Sci USA 94:5923-5928). In a subset of culture plates, pharmacological inhibitors (NVP-AAM007) were added […] prior to homocysteine addition and maintained during homocysteine treatment. Cells were processed for immunoblotting or Hoechst DNA staining.
Equal protein from total cell lysates obtained from rat and mice neuronal cultures were resolved in 7.5% SDS-PAGE, and subjected to immunoblotting procedure as described earlier (Podder and Paul, 2009, J Neurochem 110:1095-1106). Blots were analyzed with antibodies as described in each experiment. All primary antibodies (anti-pERK, anti-ERK) and secondary-horse radish peroxidase conjugated antibody concentrations were used according to recommendations provided by the manufacturer. Signals from immune complexes in the blots were developed using West Pico supersignal chemiluminescence reagents and then captured on X-ray films. Densitometric analysis of the images was performed using the Image J software.
Embryos obtained from pregnant Sprague Dawley rats (16-17-day gestation) or wild type (WT) and GluN2A KO mice (15-16-day gestation) were used to establish primary cortical neuronal cultures as previously described (Poddar and Paul, 2009, J Neurochem 110:1095-1106; Poddar and Paul, 2013, J Neurochem 124:558-570; Poddar et al., 2017, J Neurochem 142:560-573). Neurons were grown on either (a) 35-mm culture dishes (MatTek Corp., Ashland, Mass.) coated overnight with poly-D-lysine (50 μg/ml) and laminin (10 μg/ml) for Ca^2+ imaging studies, (b) poly-D-lysine-coated 60 mm dishes (Corning BIOCOAT, Corning Inc., Corning, N.Y.) for biochemical studies, or (c) poly-D-lysine-coated 4-well culture slides (Corning BIOCOAT, Corning Inc., Corning, N.Y.) for cell death assay. Neurons were maintained in culture for 12-13 days before experiment. The cells were treated with freshly prepared L-homocysteine (50 μM) in Hank's balanced salt solution containing 50 μM of glycine (Lipton et al., 1997, Proceedings of the National Academy of Sciences of the United States of America 94:5923-5928; Poddar and Paul, 2009, J Neurochem 110:1095-1106; Poddar and Paul, 2013, J Neurochem 124:558-570; Poddar et al., 2017, J Neurochem 142:560-573) for the specified time periods. In a parallel series of experiments, cells were treated with glutamate (50 μM) for the specified time periods. Cells were then processed for live cell imaging, immunoblotting or cell death assay. In some experiments EGTA, DL-AP5, NVP-AAM077, Ro 25-6981 or PD98059 was added 15 minutes prior to L-homocysteine or glutamate treatment.
Rat and mice neuron cultures were harvested in SDS sample buffer (Laemmli, 1970, Nature 227:680-685). […]

cPLA2 = cPLA2 activity in rat neuronal lysates (enzymatic assay); settings: for effect on homocysteine-mediated increase in cPLA2 activity: rat neurons, L-homocysteine 50 μM four hours, with MK801 10 μM, NVP-AAM077 30 nM, Ro 25-6981 1 μM, PD98059 15 μM or SB203580 5 μM
Experimental: as §1
For measurement of cPLA2 activity and MCP-1 levels in cell lysates, neuronal lysates were prepared by harvesting neurons in ice-cold Tris-buffered saline (pH 7.4) containing phosphatase inhibitor, sonicated three times in five-second bursts and placed on ice (two minutes) between each burst of sonication. The lysed cell suspensions were centrifuged at 10,000 rpm (10 minutes) and the supernatant was collected in another tube. Equal amounts of protein from the supernatant were processed for cPLA2 activity assay according to the manufacturer's protocol. Equal protein from the lysates were also used to estimate MCP-1 levels using an MCP-1 ELISA kit.

[1] = rat cortical neurons, L-homocysteine 50 μM four hours, in presence of NVP-AAM077 (30 nM) or Ro 256981 (1 μM)

Row | SMILES | PGE2 levels released into the medium (PGE2; cortical neurons, L-homocysteine 50 μM, time course, alone) | ERK MAPK phosphorylation (ERK MAPK; rat cortical neurons, L-homocysteine 50 μM, four hours, alone) | cPLA2 activity (cPLA2; primary cortical neurons, L-homocysteine 50 μM, 0-6 hours, alone) | effect on homocysteine-induced PGE2 release (PGE2) | effect on homocysteine-induced ERK MAPK phosphorylation (ERK MAPK; [1]) | effect on homocysteine-induced ERK MAPK phosphorylation (ERK MAPK; rat neurons, L-homocysteine 50 μM for 30 minutes or 60 minutes, with DL-AP5 200 μM or NVP-AAM077 30 nM) | effect on glutamate-induced transient increase in ERK MAPK phosphorylation (ERK MAPK; rat neurons, glutamate 50 μM five min, with DL-AP5 200 μM or NVP-AAM077 30 nM) | effect on homocysteine-mediated increase in cPLA2 activity (cPLA2)
1 | N[C@@H](CCS)C(=O)O [L-homocysteine] | significant increase in PGE2 levels within two hours | significant increase in ERK MAPK phosphorylation | significantly increases cPLA2 activity with time | – | – | – | – | –
2 | C[C@H](NC(c1cccc2[nH]c(=O)c(=O)[nH]c12)P(=O)(O)O)c1ccc(Br)cc1 (stereo partly drawn) [NVP-AAM077, ({[(1S)-1-(4-bromophenyl)ethyl]amino}-(2,3-dioxo-1,4-dihydroquinoxalin-5-yl)methyl)phosphonic acid] | – | – | – | significantly reduced | blocks homocysteine-induced ERK MAPK phosphorylation | attenuates homocysteine-induced ERK MAPK phosphorylation | fails to ameliorate | inhibits homocysteine-mediated increase in cPLA2 activity
3 | C[C@@H](CN1CCC(Cc2ccccc2)CC1)[C@@H](O)c1ccc(O)cc1 [Ro 25-6981] | – | – | – | fails to alter homocysteine-induced increase in PGE2 level | has no effect | – | – | fails to attenuate homocysteine-mediated increase in cPLA2 activity
